Laboratory results from patent US20260356817A1, “AMINOPYRIMIDINE AND AMINOTRIAZINE DERIVATIVES AS MYC PROTEIN MODULATORS” (Sanford Burnham Prebys Medical Discovery Institute, priority 2022, published 2026).
Like-named read-outs stand apart in the source and are kept apart here.

System: Myc
Experiment: Myc inhibition assay: Myc expression per cell by anti-Myc immunofluorescence, high-content imaging
Type: cell-based, human (patient-derived medulloblastoma xenograft cells)
Conditions: medulloblastoma PDX cells, 4 h
Summary of the method: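 IC50 comes from high-content imaging of per-cell Myc immunostaining (DAPI-labelled nuclei) after 4 h compound exposure. Cells were freshly dissociated medulloblastoma PDX tumours, never passaged in vitro, grown in NSG mouse cerebellum, plated serum-free and recovered overnight before treatment.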

[1] = Table 1, read-out: IC50 (Myc inhibition)
[2] = Table 2, read-out: MYC Inhibition IC50

IC50 [1] | IC50 [2] | SMILES
< 200 nM | < 200 nM | c1cc(Nc2nccc(-c3ccc4[nH]cnc4c3)n2)cc(-c2ccncc2)c1 [Compound 43, 4-(1H-benzo[d]imidazol-5-yl)-N-(3-(pyridin-4-yl)phenyl)pyrimidin-2-amine]
200 to 1000 nM | 200 to 1000 nM | CCC(=O)Nc1cccc(Nc2nccc(-c3ccc4[nH]cnc4c3)n2)c1 [Compound 15, N-(3-((4-(1H-benzo[d]imidazol-5-yl)pyrimidin-2-yl)amino)phenyl)propionamide]
1000 to 10000 nM | 1000 to 10000 nM | c1csc(CNc2nccc(-c3ccc4[nH]cnc4c3)n2)c1 [Compound 75, 4-(1H-benzo[d]imidazol-5-yl)-N-(thiophen-2-ylmethyl)pyrimidin-2-amine]
200 to 1000 nM | 200 to 1000 nM | Cc1ccccc1-c1cccc(Nc2nccc(-c3ccc4[nH]cnc4c3)n2)c1 [Compound 33, 4-(1H-benzo[d]imidazol-5-yl)-N-(2′-methyl-[1,1′-biphenyl]-3-yl)pyrimidin-2-amine]
1000 to 10000 nM | 1000 to 10000 nM | Fc1cccc(Nc2nccc(-c3cnc4nccn4c3)n2)c1 [Compound 273, N-(3-fluorophenyl)-4-(imidazo[1,2-a]pyrimidin-6-yl)pyrimidin-2-amine]
1000 to 10000 nM | 1000 to 10000 nM | Oc1ccc(-c2ccnc(Nc3cccc(F)c3)n2)cn1 [Compound 213, 5-(2-((3-fluorophenyl)amino)pyrimidin-4-yl)pyridin-2-ol]
200 to 1000 nM | 200 to 1000 nM | c1cc(Nc2nccc(-c3ccc4[nH]cnc4c3)n2)cc(N2CCCCC2)c1 [Compound 65, 4-(1H-benzo[d]imidazol-5-yl)-N-(3-(piperidin-1-yl)phenyl)pyrimidin-2-amine]
< 200 nM | < 200 nM | O=C(Nc1ccccc1)c1cccc(Nc2nccc(-c3ccc4[nH]cnc4c3)n2)c1 [Compound 263, 3-((4-(1H-benzo[d]imidazol-5-yl)pyrimidin-2-yl)amino)-N-phenylbenzamide]
10000 to 100000 nM | 10000 to 100000 nM | FC(F)(F)c1cncc(Nc2nccc(-c3ccc4[nH]cnc4c3)n2)c1 [Compound 14, 4-(1H-benzo[d]imidazol-5-yl)-N-(5-(trifluoromethyl)pyridin-3-yl)pyrimidin-2-amine]
1000 to 10000 nM | 1000 to 10000 nM | COc1cc(-c2ccnc(Nc3cccc(F)c3)n2)ccn1 [Compound 243, N-(3-fluorophenyl)-4-(2-methoxypyridin-4-yl)pyrimidin-2-amine]
200 to 1000 nM | 200 to 1000 nM | Cc1nc2ccc(-c3ccnc(Nc4cccc(C(F)(F)F)c4)n3)cc2[nH]1 [Compound 142, 4-(2-Methyl-1H-benzo[d]imidazol-6-yl)-N-(3-(trifluoromethyl)phenyl)pyrimidin-2-amine]
1000 to 10000 nM | 1000 to 10000 nM | Cn1cnc2cc(-c3ccnc(Nc4cccc(C(F)(F)F)c4)n3)ccc21 [Compound 34, 4-(1-methyl-1H-benzo[d]imidazol-5-yl)-N-(3-(trifluoromethyl)phenyl)pyrimidin-2-amine]
1000 to 10000 nM | 1000 to 10000 nM | CC(C)c1ccccc1Nc1nccc(-c2ccc3[nH]cnc3c2)n1 [Compound 64, 4-(1H-benzo[d]imidazol-5-yl)-N-(2-isopropylphenyl)pyrimidin-2-amine]
1000 to 10000 nM | 1000 to 10000 nM | c1cc(-c2ccc3[nH]cnc3c2)nc(NC2CCOCC2)n1 [Compound 101, 4-(1H-benzo[d]imidazol-5-yl)-N-(tetrahydro-2H-pyran-4-yl)pyrimidin-2-amine]
10000 to 100000 nM | 10000 to 100000 nM | COc1cc(-c2ccnc(Nc3cncnc3)n2)ccn1 [Compound 179, 4-(2-methoxypyridin-4-yl)-N-(pyrimidin-5-yl)pyrimidin-2-amine]
1000 to 10000 nM | 1000 to 10000 nM | Cc1cccc(C)c1-c1cccc(Nc2nccc(-c3ccc4[nH]cnc4c3)n2)c1 [Compound 3, 4-(1H-benzo[d]imidazol-5-yl)-N-(2′,6′-dimethyl-[1,1′-biphenyl]-3-yl)pyrimidin-2-amine]
10000 to 100000 nM | 10000 to 100000 nM | COc1cc(-c2ccnc(Nc3ccccc3)n2)ccn1 [Compound 252, 4-(2-methoxypyridin-4-yl)-N-phenylpyrimidin-2-amine]
200 to 1000 nM | 200 to 1000 nM | Oc1cc(-c2ccnc(Nc3cccc(C(F)(F)F)c3)n2)ccn1 [Compound 241, 4-(2-((3-(trifluoromethyl)phenyl)amino)pyrimidin-4-yl)pyridin-2-ol]
1000 to 10000 nM | 1000 to 10000 nM | COc1cc(-c2ccnc(Nc3ccc(F)c(F)c3)n2)ccn1 [Compound 210, N-(3,4-difluorophenyl)-4-(2-methoxypyridin-4-yl)pyrimidin-2-amine]
< 200 nM | < 200 nM | Oc1cccc(Nc2nccc(-c3ccc4[nH]cnc4c3)n2)c1 [Compound 90, 3-((4-(1H-benzo[d]imidazol-5-yl)pyrimidin-2-yl)amino)phenol]
1000 to 10000 nM | 1000 to 10000 nM | COc1cc(-c2ccnc(Nc3cccc(C(N)=O)c3)n2)ccn1 [Compound 198, 3-((4-(2-methoxypyridin-4-yl)pyrimidin-2-yl)amino)benzamide]

IC50 [1] | IC50 [2] | SMILES
< 200 nM | < 200 nM | c1ccc(-c2cccc(Nc3nccc(-c4ccc5[nH]cnc5c4)n3)c2)cc1 [Compound 70, N-([1,1′-biphenyl]-3-yl)-4-(1H-benzo[d]imidazol-5-yl)pyrimidin-2-amine]
200 to 1000 nM | 200 to 1000 nM | O=S(=O)(Nc1cccc(Nc2nccc(-c3ccc4[nH]cnc4c3)n2)c1)c1ccccc1 [Compound 38, N-(3-((4-(1H-benzo[d]imidazol-5-yl)pyrimidin-2-yl)amino)phenyl)benzenesulfonamide]
1000 to 10000 nM | 1000 to 10000 nM | c1cc(-c2ccc3[nH]cnc3c2)nc(NC2CCCC2)n1 [Compound 88, 4-(1H-benzo[d]imidazol-5-yl)-N-cyclopentylpyrimidin-2-amine]
1000 to 10000 nM | 1000 to 10000 nM | CC(C)(C)c1ccccc1Nc1nccc(-c2ccc3[nH]cnc3c2)n1 [Compound 53, 4-(1H-benzo[d]imidazol-5-yl)-N-(2-(tert-butyl)phenyl)pyrimidin-2-amine]
200 to 1000 nM | 200 to 1000 nM | COc1ncc(-c2ccnc(Nc3cccc(C(F)(F)F)c3)n2)s1 [Compound 143, 4-(2-methoxythiazol-5-yl)-N-(3-(trifluoromethyl)phenyl)pyrimidin-2-amine]
< 200 nM | < 200 nM | CCc1cccc(Nc2nccc(-c3cnc4nc[nH]c4c3)n2)c1 [Compound 140, N-(3-ethylphenyl)-4-(1H-imidazo[4,5-b]pyridin-6-yl)pyrimidin-2-amine]
10000 to 100000 nM | 10000 to 100000 nM | COc1ccnc(-c2ccnc(Nc3cccc(F)c3)n2)c1 [Compound 193, N-(3-fluorophenyl)-4-(4-methoxypyridin-2-yl)pyrimidin-2-amine]
1000 to 10000 nM | 1000 to 10000 nM | Oc1ccc(Oc2ccnc(Nc3cccc(F)c3)n2)cn1 [Compound 110, 5-((2-((3-fluorophenyl)amino)pyrimidin-4-yl)oxy)pyridin-2-ol]
< 200 nM | < 200 nM | Fc1cccc(Nc2nccc(-c3ccc4[nH]cnc4c3)n2)c1 [Compound 199, 4-(1H-benzo[d]imidazol-5-yl)-N-(3-fluorophenyl)pyrimidin-2-amine]
200 to 1000 nM | 200 to 1000 nM | Oc1ccc(-c2ccnc(Nc3cccc(C(F)(F)F)c3)n2)cn1 [Compound 211, 5-(2-((3-(trifluoromethyl)phenyl)amino)pyrimidin-4-yl)pyridin-2-ol]
1000 to 10000 nM | 1000 to 10000 nM | FC(F)(F)c1cccc(Nc2nccc(-c3ccc4cn[nH]c4c3)n2)c1 [Compound 164, 4-(1H-indazol-6-yl)-N-(3-(trifluoromethyl)phenyl)pyrimidin-2-amine]
< 200 nM | < 200 nM | c1cc(Nc2nccc(-c3ccc4[nH]cnc4c3)n2)cc(-n2ccnn2)c1 [Compound 259, N-(3-(1H-1,2,3-triazol-1-yl)phenyl)-4-(1H-benzo[d]imidazol-5-yl)pyrimidin-2-amine]
10000 to 100000 nM | 10000 to 100000 nM | Oc1ccc(Nc2ccnc(Nc3cccc(F)c3)n2)cn1 [Compound 123, 5-((2-((3-fluorophenyl)amino)pyrimidin-4-yl)amino)pyridin-2-ol]
< 200 nM | – | CC(C)n1cnc2ccc(-c3ccnc(Nc4cccc(F)c4)n3)cc21 [Compound 277A, N-(3-fluorophenyl)-4-(1-isopropyl-1H-benzo[d]imidazol-6-yl)pyrimidin-2-amine]
1000 to 10000 nM | 1000 to 10000 nM | Oc1cc(-c2ccnc(Nc3ccncc3)n2)ccn1 [Compound 190, 4-(2-(pyridin-4-ylamino)pyrimidin-4-yl)pyridin-2-ol]
200 to 1000 nM | 200 to 1000 nM | O=S(=O)(Nc1ccc(F)cc1)c1cccc(Nc2nccc(-c3ccc4[nH]cnc4c3)n2)c1 [Compound 36, 3-((4-(1H-benzo[d]imidazol-5-yl)pyrimidin-2-yl)amino)-N-(4-fluorophenyl)benzenesulfonamide]
1000 to 10000 nM | 1000 to 10000 nM | COc1cc(-c2ccnc(Nc3cncc(F)c3)n2)ccn1 [Compound 146, N-(5-fluoropyridin-3-yl)-4-(2-methoxypyridin-4-yl)pyrimidin-2-amine]
1000 to 10000 nM | 1000 to 10000 nM | Oc1ccnc(-c2ccnc(Nc3ccccc3)n2)c1 [Compound 183, 2-(2-(phenylamino)pyrimidin-4-yl)pyridin-4-ol]
200 to 1000 nM | 200 to 1000 nM | c1cc(-c2ccc3[nH]cnc3c2)nc(Nc2ccsc2)n1 [Compound 68, 4-(1H-benzo[d]imidazol-5-yl)-N-(thiophen-3-yl)pyrimidin-2-amine]
10000 to 100000 nM | 10000 to 100000 nM | COc1ccc(-c2ccnc(N(C)c3ccccc3)n2)cn1 [Compound 223, 4-(6-methoxypyridin-3-yl)-N-methyl-N-phenylpyrimidin-2-amine]
< 200 nM | < 200 nM | Cc1cccc(Nc2nccc(-c3cnc4nc[nH]c4c3)n2)c1 [Compound 136, 4-(1H-imidazo[4,5-b]pyridin-6-yl)-N-(m-tolyl)pyrimidin-2-amine]
